Each structure is given as a SMILES string.

The target in assay [1] is T1, growth hormone secretagogue receptor (GHSR), rat pituitary membranes (Rattus norvegicus, UniProt O08725).
T1 construct: from the Wistar male rats (150-200 g); from tissue; host or cells: pituitary glands of male Wistar rats (150-200 g), crude membranes
The assay is described as follows: [35S]-Compound A radioreceptor binding, rat pituitary membranes. The procedure: [^35 S]-Compound A was prepared from an appropriate precursor, N-[1(R)-[(1,2-dihydrospiro[3H-indole-3,4'-piperidin]-1'-yl)-carbonyl]-2-(phenyl-methyloxy)ethyl]-2-amino-t-butoxycarbonyl-2-methylpropanamide, using methane [^35 S]sulfonyl chloride as described in Dean DC, et al., 1995, In: Allen J, Voges R (eds) Synthesis and Applications of Isotopically Labelled Compounds, John Wiley & Sons, New York, pp. 795-801, Purification by semi-preparative HPLC (Zorbax SB-phenyl column, 68% MeOH/water, 0.1% TFA, 5 ml/min) was followed by N-t-BOC cleavage using 15% trifluroacetic acid in dichloromethane (25° C., 3 hr) to give [methylsulfonyl-^35 S]Compound A in near quantitative yield. HPLC purification (Hamilton PRP-1 4.6×250 mm column, linear gradient of 50-75% methanol-water with 1 mM HCl over 30 min, 1.3 ml/min) provided the ligand in >99% radiochemical purity. The structure was established by HPLC coelution with unlabeled Compound A and by mass spectral analysis. The latter method also indicated a specific activity of ~1000 Ci/mmol.
Frozen anterior pituitary glands from male swine (50-80 Kg) or from the Wistar male rats (150-200 g) were homogenized in a tissue homogenizer in ice-cold buffer (50 mM Tris-HCl buffer, pH 7.4, 5 mM MgCl2, 2.5 mM EDTA, 0.1% bovine serum albumin and 30 μg/ml bacitracin). The homogenates were centrifuged for 5 min at 1,400×g and the resulting supernatants were then centrifuged at 34,000×g for 20 min. The pellets were resuspended in same buffer to a 1,500 μg protein/ml and stored at -80° C. Protein was determined by a Bio-Rad method (Bio-Rad Laboratories, Richmond, Calif.).
The standard binding solution contained: […] of 25 mM Tris-HCl buffer, pH 7.4, 10 mM MgCl2, 2.5 mM EDTA, and 100 pM [^35 S]-Compound A. Pituitary membranes (100 μl, 150 μg protein) were added to initiate the binding reaction. […] The filters were washed three times with 3-ml of ice-cold buffer (50 mM Tris-HCl, pH 7.4, 10 mM MgCl2, 2.5 mM EDTA and 0.015% Triton X-100) and the radioactivity on the filters were counted in Aquasol 2. […]

The test system of assay [2] is swine Type I GHSR. The assay is described as follows: Aequorin bioluminescence assay in Xenopus oocytes, swine Type I GHSR. It counts as cell-based. To be noted: swine Type I cRNA in oocytes; tested from 1 μM down. The procedure:
Xenopus laevis oocytes were isolated and injected using standard methods previously described by Arena, et. al. 1991, Mol. Pharmacol. 40, 368-374, which is hereby incorporated by reference. Adult female Xenopus Laevis frogs (purchased from Xenopus One, Ann Arbor, Mich.) were anesthetized with 0.17% tricaine methanesulfonate and the ovaries were surgically removed and placed in a 60 mm culture dish (Falcon) containing OR-2 medium without calcium (82.5 mM NaCl, 2 mM KCl, 2.5 mM sodium pyruvate, 1 mM MgCl2, 100 μ/ml penicillin, 1 mg/ml streptomycin, 5 mM HEPES, pH=7.5; ND-96 from Specialty Media, NJ). Ovarian lobes were broken open, rinsed several times, and oocytes were released from their sacs by collagenase A digestion (Boehringer-Mannheim; 0.2% for 2-3 hours at 18° C.) in calcium-free OR-2. […]
The ABA requires injection of library pool cRNA (25 ng/egg for pool sizes of 500 to 10,000) with aequorin cRNA (2 ng/egg) supplemented with the G-protein alpha subunit Gα11 (2 ng/egg). […] Polymerase chain reaction (PCR) was utilized to generate a DNA fragment corresponding to the open reading frame (ORF) of the aequorin cDNA with an optimized Kosak translational initiation sequence (Inouye, S. et. al., 1985, Proc. Natl. Acad. Sci. USA 82:3154-3158). […]

T1 sequence (O08725 whole entry): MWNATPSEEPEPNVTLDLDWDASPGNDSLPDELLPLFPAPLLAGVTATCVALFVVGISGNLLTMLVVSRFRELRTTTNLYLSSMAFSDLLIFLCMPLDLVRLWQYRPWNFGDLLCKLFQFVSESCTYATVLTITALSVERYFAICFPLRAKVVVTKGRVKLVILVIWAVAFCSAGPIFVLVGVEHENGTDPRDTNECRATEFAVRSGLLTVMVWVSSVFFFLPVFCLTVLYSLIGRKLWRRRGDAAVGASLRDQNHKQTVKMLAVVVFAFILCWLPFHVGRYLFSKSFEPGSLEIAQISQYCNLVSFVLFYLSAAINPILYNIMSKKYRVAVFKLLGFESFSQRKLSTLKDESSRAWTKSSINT

Broadly, the Kd is the constant that tells how readily two partners part at equilibrium. Higher therefore signals lower affinity. In the case of `CC(C)(N)C(=O)N[C@H](COCc1ccccc1)C(=O)N1CCC2(CC1)CN(S(C)(=O)=O)c1ccccc12` [Compound A, (N-[1(R)-[1,2-dihydro-1-methanesulfonlylspiro[3H-indole-3,4'-piperidin]-1'-yl)carbonyl]-2-(phenylmethyloxy)-ethyl]-2-amino-2-methyl-propanamide], the “specific binding of total binding” value in assay [1] (rat membranes, nonspecific in 500 nM unlabeled Compound A) is given as 45-60%. Further, in assay [1] (rat pituitary membranes, n=3), the Bmax was 2.3±1.1 fmol/mg protein and the Kd amounted to 0.18 ± 0.009 nM. Moreover, in assay [2], the “lowest Compound A concentration giving a response” value amounted to 0.1 nM.
